Test results as given in patent US4564619A, “Carbostyril derivative” (Otsuka Pharmaceutical Co., Ltd., priority 1982, dated 1986).

Legend:
[1] = system: ADP-induced aggregation in rabbit platelets; assay: Inhibition of ADP-induced platelet aggregation in rabbit platelet rich plasma; format: cell-based; details: Oryctolagus cuniculus, read-out: Inhibition rate of ADP-induced aggregation; for inhibition at 100 µM (stock): Concentration of the test compound solution 10^-4 mole; for inhibition at 10 µM (stock): Concentration of the test compound solution 10^-5 mole
Procedure: (§1) The platelet aggregation inhibitory effect was measured by using a Platelet Aggregation Tracer Model PAT-6M (manufactured by Nikoh Bio-Science Co., Ltd.) by a method according to Kimura, et al., [IGAKU-NO-AYUMI (Progress in Medicine), Vol. 114, No. 9, pp. 718-727, Aug. 30, 1980, and Nature, pp. 927-929, 1962].
(§2) The blood sample used for the test was a 1:9 (by volume) mixture of "3.8%-CITRATE"® (a registered trademark for 3.8%-sodium citrate, manufactured by Green Cross Corp.) and whole blood collected from rabbits. Said sample was subjected to 10-minute centrifugal separation at 1,000 r.p.m. (200xG) to obtain a platelet rich plasma (PRP). The PRP thus obtained was separated, and the remaining blood sample was further subjected to 15-minute centrifugal separation at 3,000 r.p.m. (2,000xG) to obtain a platelet poor plasma (PPP).
(§3) The number of platelets in the PRP was counted by the Brecher-Clonkite Method, and the PRP was diluted with the PPP to prepare a PRP sample with a platelet concentration of 600,000/microliter to prepare for an adenosine diphosphate (ADP)-induced aggregation test, and a collagen-induced aggregation test. 0.2 Milliliter of the PRP sample was added to 2 microliters of a solution of a test compound of predetermined concentration and this mixture was placed in a 37° C. thermostat for one minute. Then 20 microliters of an ADP or collagen solution was added to the mixture. In this test, the ADP solution was prepared by adjustment to a concentration of 7.5×10^-5 M by using Auren-Beronal buffer solution (pH 7.35). Further, the collagen solution was prepared by adjustment to a concentration of 200 micrograms/ml by using collagen reagent of "Holm"® (manufactured by Hormon-Chemie Munchen, GmbH.) which was diluted wih a physiological saline solution.
(§4) The transmittance of the resultant test mixture was determined and the change of transmittance was recorded by using the aggregometer at a stirrer speed of 1,100 r.p.m.
(§5) The platelet aggregation inhibitory effect of the test compound was measured in terms of inhibition rate (%) with respect to the aggregation rate of the controls. The aggregation rate was calculated from the following formula.
(§6) Aggregation rate=[(c-a)/(b-a)]×100
(§7) The percent inhibition is calculated from the following formula.
(§8) Inhibition rate (%)=[(A-B)/A]×100
(§9) The inhibitory effect of the test compounds on collagen-induced aggregation in rabbit platelets is shown in Table 1, similarly such effect on ADP-induced aggregation in rabbit platelets is shown in Table 2.

coronary artery = assay: Increased amount of the blood flow in coronary artery, intravenous administration, anesthetized dog; format: in vivo
Procedure: (§10) The change of blood flow in coronary artery and the change of blood pressure were measured by a method according to Yakura et al., [Japan Journal of Pharmacology, Vol. 57, pages 380-391 (1961)] and according to Taira, et al. [Clin. Exp. Pharmacol. Physiol., Vol. 6, pages 301-316, (1976)].
(§11) An adult bastard dog of either sex weighing 8-13 kg was anesthetized with sodium pentobarbital at the rate of 30 mg/kg by intraveneous administration, then the dog was fixed in supination and was theracotomized under a condition of forced breathing. After another intraveneous administration of sodium heparin at the rate of 500 U/kg, 100 U/kg per hour, the dog was subjected to the following experiments.
(§12) (2) Intraveneous administration
(§13) Morawitz's cannula was cannulated to the coronary sinus venosus through the auricula dextra cordis, and the blood in vein was circulated to the right carotid. The blood flow was measured by an electromagnetic blood flow meter equipped with a blood flow observation probe in the extracorporeal circulation path of the vein. The systolic force was measured by a systolometer (pick-up) placed at the left ventricle of heart, the blood pressure was measured from the femoral artery, and the heart rate was measured from the pulse. A compound to be tested was administered through the cannula being cannulated in femoral vein. The increased amount of the blood flow in coronary artery after the administration of the test compound is shown in Table 4, also the change of blood pressure is shown in Table 5.

[2] = system: collagen-induced aggregation in rabbit platelets; assay: Inhibition of collagen-induced platelet aggregation in rabbit platelet rich plasma; format: cell-based; details: Oryctolagus cuniculus, read-out: Inhibition rate of collagen-induced aggregation; for inhibition at 100 µM (stock): Concentration of the test compound solution 10^-4 mole; for inhibition at 10 µM (stock): Concentration of the test compound solution 10^-5 mole
Procedure: as §1, §2, §3, §4, §5, §6, §7, §8, §9

[3] = Change of blood pressure, intravenous administration, anesthetized dog; format: in vivo; parameters: unit not given here; details: femoral artery
Procedure: as §10, §11, §12, §13

| Compound | inhibition at 100 µM (stock) [1] | inhibition at 10 µM (stock) [1] | Increased amount of the blood flow in coronary artery (coronary artery; 3 micrograms/kg) | Increased amount of the blood flow in coronary artery (coronary artery; 10 micrograms/kg) | Increased amount of the blood flow in coronary artery (coronary artery; 30 micrograms/kg) | Increased amount of the blood flow in coronary artery (coronary artery; 100 micrograms/kg) | Increased amount of the blood flow in coronary artery (coronary artery; 300 micrograms/kg) | inhibition at 100 µM (stock) [2] | inhibition at 10 µM (stock) [2] | Change of blood pressure ([3]; 3 micrograms/kg) | Change of blood pressure ([3]; 10 micrograms/kg) | Change of blood pressure ([3]; 30 micrograms/kg) | Change of blood pressure ([3]; 100 micrograms/kg) | Change of blood pressure ([3]; 300 micrograms/kg) | Increased amount of the blood flow in coronary artery (coronary artery; 1000 micrograms/kg) |
| --- | --- | --- | --- | --- | --- | --- | --- | --- | --- | --- | --- | --- | --- | --- | --- |
| COC(=O)C1=C(C)NC(C)=C(C(=O)OCCCOc2ccc3c(c2)CCC(=O)N3)C1c1cccc([N+](=O)[O-])c1 (stereo not drawn) [Compound 5, 6-{3-[2,6-Dimethyl-5-methoxycarbonyl-4-(3-nitrophenyl)-1,4-dihydropyridin-3-carboxy]-propoxy}-3,4-dihydrocarbostyril] | 20% | 4% | 3 mL/min | 12 mL/min | 47 mL/min | 89 mL/min | 77 mL/min | 38% | 12% | – | – | – | – | – | – |
| COC(=O)C1=C(C)NC(C)=C(C(=O)OCCCCOc2ccc3c(c2)CCC(=O)N3)C1c1ccccc1 (stereo not drawn) [Compound 28, 6-[4-(2,6-Dimethyl-5-methoxycarbonyl-4-phenyl-1,4-dihydropyridin-3-carboxy)butoxy]-3,4-dihydrocarbostyril] | 52% | – | – | – | – | – | – | 63% | – | -1 | -10 | -7 | -20 | -47 | – |
| COC(=O)C1=C(C)NC(C)=C(C(=O)OCCCCOc2ccc3c(c2)CCC(=O)N3)C1c1ccccc1C (stereo not drawn) [Compound 29, 6-{4-[2,6-Dimethyl-5-methoxycarbonyl-4-(2-methylphenyl-1,4-dihydropyridin-3-carboxy)]-butoxy}-3,4-dihydrocarbostyril] | 59% | – | – | – | – | – | – | 69% | – | -7 | -23 | -45 | -70 | -80 | – |
| COC(=O)C1=C(C)NC(C)=C(C(=O)OCCCCOc2ccc3c(c2)CCC(=O)N3)C1c1ccccc1C(=O)OC (stereo not drawn) [Compound 30, 6-{4-[2,6-Dimethyl-5-methoxycarbonyl-4-(2-methoxycarbonyl)-1,4-dihydropyridin-3-carboxy]butoxy}-3,4-dihydrocarbostyril] | 89% | – | – | – | – | – | – | 100% | 3% | – | -1 | -16 | -38 | – | – |
| COC(=O)C1=C(C)NC(C)=C(C(=O)OCCN(C(=O)CCCOc2cccc3[nH]c(=O)ccc23)C2CCCCC2)C1c1cccc([N+](=O)[O-])c1 (stereo not drawn) [Compound 33, N--{2-[1,4-Dihydro-2,6-dimethyl-5-methoxycarbonyl-4-(3-nitrophenyl)pyridin-3-carboxy]ethyl}-N--cyclohexyl-4-(5-carbostyriloxy)butyramide] | 98% | 25% | – | – | – | 1 mL/min | 4 mL/min | 100% | 34% | – | – | – | – | – | 48 mL/min |
| COC(=O)C1=C(C)NC(C)=C(C(=O)OCCN(C(=O)CCCOc2ccc3[nH]c(=O)ccc3c2)C2CCCCC2)C1c1ccccc1[N+](=O)[O-] (stereo not drawn) [Compound 34, N--{2-[1,4-Dihydro-2,6-dimethyl-5-methoxycarbonyl-4-(2-nitrophenyl)pyridin-3-carboxy]ethyl}-N--cyclohexyl-4-(6-carbostyriloxy)butyramide] | 94% | 98% | – | – | – | 22 mL/min | 47 mL/min | 100% | 100% | – | – | – | – | – | 54 mL/min |
| CCN(CCOC(=O)C1=C(C)NC(C)=C(C(=O)OC)C1c1ccccc1)C(=O)CCCOc1ccc2[nH]c(=O)ccc2c1 (stereo not drawn) [Compound 36, N--[2,(1,4-Dihydro-2,6-dimethyl-5-methoxycarbonyl-4-phenylpyridin-3-carboxy)ethyl]-N--ethyl-4-(6-carbostyriloxy)butyramide] | 98% | 55% | – | – | – | 4 mL/min | 12 mL/min | 100% | 100% | – | – | – | – | – | 38 mL/min |
| COC(=O)C1=C(C)NC(C)=C(C(=O)OCCCOc2cc(=O)[nH]c3ccccc23)C1c1cccc([N+](=O)[O-])c1 (stereo not drawn) [Compound 37, 4-{3-[2,6-Dimethyl-5-methoxycarbonyl-4-(3-nitrophenyl)-1,4-dihydropyridin-3-carboxy]propoxy}carbostyril] | 17% | – | – | – | – | – | – | 15% | – | – | – | -1 | -5 | -18 | – |
| COC(=O)C1=C(C)NC(C)=C(C(=O)OCCCOc2ccc3[nH]c(=O)cc(C)c3c2)C1c1cccc([N+](=O)[O-])c1 (stereo not drawn) [Compound 38, 4-Methyl-6-{3-[2,6-dimethyl-5-methoxycarbonyl-4-(3-nitrophenyl)-1,4-dihydropyridin-3-carboxy]propoxy}carbostyril] | 31% | – | – | – | – | – | – | 45% | – | – | -2 | -10 | -35 | – | – |
| COC(=O)C1=C(C)NC(C)=C(C(=O)OCC(COc2ccc3[nH]c(=O)ccc3c2)OC(C)=O)C1c1cccc([N+](=O)[O-])c1 (stereo not drawn) [Compound 43, 6-{3-[2,6-Dimethyl-5-methoxycarbonyl-4-(3-nitrophenyl)-1,4-dihydropyridin-3-carboxy]-2-acetoxypropoxy}carbostyril] | 100% | 100% | – | – | – | – | – | 100% | 100% | – | – | -4 | -16 | -23 | – |
| COC(=O)C1=C(C)NC(C)=C(C(=O)OCCCOc2ccc3[nH]c(=O)ccc3c2)C1c1ccccc1 (stereo not drawn) [Compound 44, 6-[3-(2,6-Dimethyl-5-methoxycarbonyl-4-phenyl-1,4-dihydropyridin-3-carboxy)propoxy]-carbostyril] | 100% | 20% | – | – | – | – | – | 100% | 25% | – | -1 | -3 | -6 | -52 | – |
